For two compounds, Ki results are on record in patent US5710274A, “N-aminoalkyldibenzofurancarboxamides; new dopamine receptor subtype specific ligands” (Neurogen Corporation, priority 1996, dated 1998).

SMILES strings stand for the structures. Structures can show the parent of a compound that is named as a salt.

For one experiment, the target named is T1, D2 receptors (Chlorocebus aethiops, UniProt P52702).
T1 construct: expressed in transfected cells; host or cells: COS cells
As to the kind of experiment: D2 receptor binding, displacement of 3H-YM 09151-2. To be noted: recombinant receptors in COS cell pellets; 0.5 nM 3H-YM 09151-2; 48° C; pH 7.4. Details: species or system African Green monkey. The method, then: (§1) Pellets of COS cells containing recombinantly produced D2 or D3 receptors from African Green monkey were used for the assays. The sample is homogenized in 100 volumes (w/vol) of 0.05M Tris HCl buffer at 4° C. and pH 7.4. The sample is then centrifuged at 30,000×g and resuspended and rehomogenized. The sample is then centrifuged as described and the final tissue sample is frozen until use. The tissue is resuspended 1:20 (wt/vol) in 0.05M Tris HCl buffer containing 100 mM NaCl.
(§2) Incubations are carried out at 48° C. and contain 0.4 ml of tissue sample, 0.5 nM ^3 H-YM 09151-2 and the compound of interest in a total incubation of 1.0 ml. Nonspecific binding is defined as that binding found in the presence of […] spiperone; without further additions, nonspecific binding is less than 20% of total binding. The binding characteristics of representative compounds of the invention for D2 and D3 receptor subtypes are shown in Table 2 for rat striatal homogenates.
(Loss of bound radioactivity is the signal in a displacement assay; it reports binding, not function.)

Another experiment deals with T2, D3 receptors (Chlorocebus aethiops, UniProt P52703).
T2 construct: expressed in transfected cells; host or cells: COS cells
As to the kind of experiment: D3 receptor binding, displacement of 3H-YM 09151-2. Details: species or system African Green monkey. To be noted: recombinant receptors in COS cell pellets; 0.5 nM 3H-YM 09151-2; 48° C; pH 7.4. The method, then: as §1, §2

T2 sequence (P52703 whole entry): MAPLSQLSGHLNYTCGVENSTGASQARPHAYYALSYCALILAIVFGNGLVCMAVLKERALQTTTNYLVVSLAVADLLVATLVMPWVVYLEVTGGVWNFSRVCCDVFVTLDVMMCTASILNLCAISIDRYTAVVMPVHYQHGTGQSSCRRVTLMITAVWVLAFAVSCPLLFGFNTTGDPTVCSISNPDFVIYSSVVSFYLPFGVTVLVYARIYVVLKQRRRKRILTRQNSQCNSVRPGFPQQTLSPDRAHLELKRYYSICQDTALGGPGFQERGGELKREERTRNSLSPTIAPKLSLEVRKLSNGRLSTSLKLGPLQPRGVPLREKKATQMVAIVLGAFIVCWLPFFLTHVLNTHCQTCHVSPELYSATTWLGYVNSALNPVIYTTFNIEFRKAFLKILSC
T1 sequence (P52702 whole entry): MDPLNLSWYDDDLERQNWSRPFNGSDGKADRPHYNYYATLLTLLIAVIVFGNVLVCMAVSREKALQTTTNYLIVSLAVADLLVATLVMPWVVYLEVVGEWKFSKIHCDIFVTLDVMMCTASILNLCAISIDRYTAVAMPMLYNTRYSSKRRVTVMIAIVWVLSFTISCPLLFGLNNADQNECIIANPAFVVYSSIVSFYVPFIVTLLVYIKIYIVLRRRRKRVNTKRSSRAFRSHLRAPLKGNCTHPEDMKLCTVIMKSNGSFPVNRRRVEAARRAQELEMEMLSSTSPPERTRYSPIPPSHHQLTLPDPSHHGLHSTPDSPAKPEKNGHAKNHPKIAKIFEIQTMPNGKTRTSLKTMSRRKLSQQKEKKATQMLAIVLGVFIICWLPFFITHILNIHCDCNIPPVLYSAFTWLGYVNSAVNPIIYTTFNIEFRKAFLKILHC

One may read the Ki as a dissociation constant, usually derived from enzyme kinetics or from competition with a known ligand. `O=C(NCCCCN1CCN(c2cccc(Cl)c2Cl)CC1)c1ccc2oc3ccccc3c2c1` [Compound 1, N-(1-{4-[4-(2,3-Dichlorophenyl)piperazin-1-yl]}butyl)-2-dibenzofurancarboxamide hydrochloride]: the Ki at D2 receptors was 157 nM; at D3 receptors, 1 nM.

For the compound `O=C(NCCCCN1CCN(c2cccc3ccccc23)CC1)c1ccc2oc3ccccc3c2c1` [Compound 2, N-(1-{4-[4-(1-Naphthyl)piperazin-1-yl]}butyl)-2-dibenzofurancarboxamide hydrochloride], the Ki on D2 receptors is 201 nM; on D3 receptors, 1.3 nM.
